As a reminder, the IC50 is the concentration needed to halve the response being measured.

What all share (assay type): cell-based, human
Assay [1] concerns MDA-MB-231 (ER negative breast carcinoma cell line). Description: CellTiter-Glo antiproliferative activity, MDA-MB-231 cell line. As to conditions: 72 h exposure; for IC50: Homo sapiens, MDA-MB-231. The source says: (§1) Numerous substituted THIQs were systematically synthesized employing molecular design and structure activity relationship studies (Suresh et al., (2014) Lett. Drug Design & Discov. 11: 428-436; Gangapuram et al., (2014) J. Cancer Sci. Ther. 6: 161-169). The compounds' cytotoxic effects on MCF-7 (estrogen receptor positive breast cancer) cell lines, MDA-MB-231 (estrogen receptor negative breast cancer) cell lines and Ishikawa cell lines using CellTiter-Glo (CTG) luminescent cell viability essay were studied. The tests were done on different concentrations of the compounds ranging from 0.01 to 100,000 nM on 5000 MCF-7 cells/well, on 5000 MDA-MB-231 cells/well and on 5000 Ishikawa cells/well. Drug exposed cells were incubated at 37° C. for three days followed by CTG assay. Then IC50 values were generated from Graph Pad Prism 4.
(§2) Chemistry: Several substituted tetrahydroisoquinolines 2d-2m, 3h, 3k, 3l, and 4a-4f were prepared according to three different procedures as shown in Schemes 1, 2 and 3 (FIGS. 2-4). […] The aminating agent 10 was prepared using a reported procedure (Tamura et al., (1972) J. Org. Chem. 40: 4133-4135). The amino salts of ring substituted 2-aminoisoquinolinium mesitylenesulfonates of general structure 11 used in the present study were prepared by the reaction of substituted isoquinolines and the aminating agent 10 as previously reported (Gangapuram et al., (2014) J. Cancer Sci. Ther. 6: 161-169). […] The aminating agent 13 was prepared using a reported procedure (Legault & Charette (2003) J. Org. Chem. 68: 7119-7122). The amino salts of ring substituted 2-aminoisoquinolinium compounds of general structure 14 were obtained with the reaction of the substituted isoquinolines and the aminating agent 13 in CH3CN heated at 50° C. for 24 hours. Without further purification, the salts were used to prepare the N-ylides by reaction with substituted acyl/sulfonyl chlorides. […] N-Oxidation of commercially available ring substituted THIQs followed by the reduction of the NO group using standard zinc/acetic acid led to the synthesis of N-amino THIQs.
(§3) The antiproliferative activities of substituted tetrahydroisoquinolines 2a-2m, 3a-3l and 4a-4f were evaluated according to the procedure reported previously (Crouch et al., (1993) J. Immunol. Methods 160: 81-88).
(§4) Human MCF-7 and MDA-MB-231 breast cancer cell lines were purchased from the NCI. The human Ishikawa endometrial cancer cell line was purchased from Sigma Aldrich. All three cell lines were cultured in phenol red-free RPMI-1640 (Hyclone) (500 mL) supplemented with L-glutamine-dipeptide (Hyclone) (5 mL), and 10% fetal bovine serum (Atlanta Biologicals) (50 mL).
(§5) The cell lines were cultured and treated with compounds under study including the standard TAM ranging from 0.01 nM to 100,000 nM concentration in the presence of 10 nM estradiol using the previous reported method (Suresh et al., (2014) Lett. Drug Des. Discov. 11: 428-436).

Assay [2] concerns Ishikawa (endometrial) cancer cell line. Description: CellTiter-Glo antiproliferative activity, Ishikawa cell line. As to conditions: 72 h exposure; for IC50: Homo sapiens, Ishikawa.
Text: as §1, with “4. […]” for “4.”
as §3, §4, §5
(§6) The amount of ATP is determined using a system based on luciferase and D-luciferin resulting in light generation.

For assay [3], the system named is MCF-7 (ER positive breast cancer cell line). Put plainly: CellTiter-Glo antiproliferative activity, MCF-7 cell line. The note with it: for IC50 MCF-7 / IC50: 72 h exposure; for IC50: Homo sapiens, MCF7.
Text: as §1, §2, §3, §4, §5, §6
A general note: In ATP-based viability assays light output follows the ATP content of the culture.

The mark [4] stands for this setting: Table 1, in the presence of 10 nM estradiol.
Where [5] appears, read: Table 2, estradiol added, read-out: IC50 Ishikawa.
Setting [6] is: Table 2, estradiol added, read-out: IC50 MCF-7.
[7] abbreviates: Table 1, in the presence of 10 nM estradiol, read-out: IC50 Ishikawa.
The mark [8] stands for this setting: Table 1, in the presence of 10 nM estradiol, read-out: IC50 MCF-7.

In brackets after ≈: the same amount, converted by molar mass. Where a name gives a salt, the structure may show the parent alone. Read-outs that look alike come from different tables or passages of the source.

For the compound `CC(C)(C)c1ccc(C(=O)NN2CCc3c(cccc3OCc3ccccc3)C2)cc1` [Compound 3e, N-(5-(Benzyloxy)-3,4-dihydroisoquinolin-2(1H)-yl)-4-(tertbutyl) benzamide], the “IC50 MDA-MB-231” value in assay [1] (setting [4]) is above 41.45 µg/mL. For the same compound, the “IC50 Ishikawa” value in assay [2] (setting [4]) is above 41.45 µg/mL. The “IC50 MCF-7” value in assay [3] (setting [4]) was above 41.45 µg/mL.

Take `CC(C)(C)c1ccc(C(=O)NN2CCc3c(O)cccc3C2)cc1` [Compound 3b, 4-(tert-butyl)-N-(5-Hydroxy-3,4-dihydroisoquinolin-2(1H)-yl) benzamide]: the “IC50 MDA-MB-231” value in assay [1] (setting [4]) amounted to 10.25 µg/mL. The “IC50 Ishikawa” value in assay [2] (setting [4]) was found to be 10.96 µg/mL. Further, the “IC50 MCF-7” value in assay [3] (setting [4]) was determined as 7.92 µg/mL.

As for `COc1cccc2c1CCN(NC(=O)c1ccc(C(C)(C)C)cc1)C2` [Compound 3a, 4-(tert-butyl)-N-(5-Methoxy-3,4-dihydroisoquinolin-2(1H)-yl) benzamide], the “IC50 MDA-MB-231” value in assay [1] (setting [4]) is above 33.84 µg/mL. Moreover, in assay [2] (setting [4]), the “IC50 Ishikawa” value is above 33.84 µg/mL. The “IC50 MCF-7” value in assay [3] (setting [4]) is above 33.84 µg/mL.

Consider `Nc1ccc(C(=O)NN2CCc3ccc(Br)cc3C2)cc1` [Compound 2l, 4-Amino-N-(7-bromo-3,4-dihydroisoquinolin-2(1H)-yl) benzamide], for which the “IC50 MDA-MB-231” value in assay [1] (setting [4]) is 9.86 µg/mL. In addition, the “IC50 Ishikawa” value in assay [2] (setting [4]) was 1.09 µg/mL. Further, in assay [3] (setting [4]), the “IC50 MCF-7” value is 2.80 µg/mL.

Regarding `CCc1ccc(C(=O)NN2CCc3ccc(OS(N)(=O)=O)cc3C2)cc1` [Redda-GM-4-171, 2-(4-Ethylbenzamido)-1,2,3,4-tetrahydroisoquinolin-7-yl-sulfamate], the IC50 in assay [1] (Table 2, estradiol added) was 2.53 µg/mL (≈ 6.74 µM); in assay [2] (setting [5]), 0.12 µg/mL (≈ 0.32 µM); in assay [3] (setting [6]), 2.14 µg/mL (≈ 5.7 µM).

Consider `CCc1ccc(C(=O)NN2CCc3ccc(C#N)cc3C2)cc1` [Compound 4d, N-(7-Cyano-3,4-dihydroisoquinolin-2(1H)-yl)-4-ethylbenzamide], for which the IC50 was 1.76 µg/mL in assay [1] (setting [4]); below 7.87 µg/mL in assay [2] (in the presence of 10 nM estradiol, read-out: IC50 against Ishikawa cell line); 0.9 µg/mL in assay [2] (setting [7]); 1.28 µg/mL in assay [3] (in the presence of 10 nM estradiol, read-out: IC50 against MCF-7 cell line); 1.28 µg/mL in assay [3] (setting [8]). In assay [3] (based on IC50 value), the “antiproliferative activity against MCF-7 cell line in words” value was “moderate activity”.

In the case of `CCc1ccc(C(=O)NN2CCc3cc(O)ccc3C2)cc1` [Compound 2h, 4-Ethyl-N-(6-hydroxy-3,4-dihydroisoquinolin-2(1H)-yl) benzamide], the “IC50 MDA-MB-231” value in assay [1] (setting [4]) was above 29.64 µg/mL. Further, in assay [2] (setting [4]), the “IC50 Ishikawa” value came to 22.38 µg/mL. The “IC50 MCF-7” value in assay [3] (setting [4]) was above 29.64 µg/mL.

Turning to `CCc1ccc(C(=O)NN2CCc3c(O)cccc3C2)cc1` [Compound 3f, 4-Ethyl-N-(5-hydroxy-3,4-dihydroisoquinolin-2(1H)-yl) benzamide], in assay [1] (setting [4]), the “IC50 MDA-MB-231” value was 15.61 µg/mL. Also, the “IC50 Ishikawa” value in assay [2] (setting [4]) was 9.93 µg/mL. Further, the “IC50 MCF-7” value in assay [3] (setting [4]) came to 18.61 µg/mL.

With `CCc1ccc(C(=O)NN2CCc3cc(C(=O)OC)ccc3C2)cc1` [Compound 3h, methyl-2-(4-ethylbenzamido)-1,2,3,4-tetrahydroisoquinoline-6-carboxylate], the IC50 in assay [1] (setting [4]) came out at 16.1 µg/mL; in assay [2] (setting [7]), 8.64 µg/mL; in assay [3] (setting [8]), 15.2 µg/mL.

Turning to `O=C(c1ccc(OCCN2CCCCC2)cc1)c1c(-c2ccc(O)cc2)sc2cc(O)ccc12` [Raloxifene-Hydrochloride, reference compound], the IC50 is 11.2 µg/mL in assay [1] (setting [4]), 10.5 µg/mL in assay [2] (setting [7]) and 0.98 µg/mL in assay [3] (setting [8]).

On to `CCc1ccccc1C(=O)NN1CCc2ccc(O)cc2C1` [Compound 2g, 2-Ethyl-N-(7-hydroxy-3,4-dihydroisoquinolin-2(1H)-yl) benzamide], for which the “IC50 MDA-MB-231” value in assay [1] (setting [4]) was above 29.64 µg/mL. For the same compound, in assay [2] (setting [4]), the “IC50 Ishikawa” value is above 29.64 µg/mL. In addition, in assay [3] (setting [4]), the “IC50 MCF-7” value was above 29.64 µg/mL.

For `CCc1ccc(C(=O)NN2CCc3ccccc3C2c2ccco2)cc1` (stereo not drawn) [Redda-EVK-I-135, 4-Ethyl-N-(1-(furan-2-yl)-3,4-dihydroisoquinolin-2(1H)-yl)benzamide], the IC50 in assay [1] (Table 2, estradiol added) amounted to 3.88 µg/mL (≈ 11.2 µM); in assay [2] (setting [5]), 1.71 µg/mL (≈ 4.94 µM); in assay [3] (setting [6]) it was 2.39 µg/mL (≈ 6.9 µM).

The values are drawn from patent US10730840B2, “Substituted tetrahydroisoquinoline ethylbenzamide anti-cancer agents” (Florida A&M University, priority 2017, dated 2020).
